The compounds below were run against T1, TrxR1 (thioredoxin reductase 1) (Rattus norvegicus, UniProt O89049) (assay: biochemical).
T1 construct: gene Txnrd1
T1 sequence (O89049 1-499): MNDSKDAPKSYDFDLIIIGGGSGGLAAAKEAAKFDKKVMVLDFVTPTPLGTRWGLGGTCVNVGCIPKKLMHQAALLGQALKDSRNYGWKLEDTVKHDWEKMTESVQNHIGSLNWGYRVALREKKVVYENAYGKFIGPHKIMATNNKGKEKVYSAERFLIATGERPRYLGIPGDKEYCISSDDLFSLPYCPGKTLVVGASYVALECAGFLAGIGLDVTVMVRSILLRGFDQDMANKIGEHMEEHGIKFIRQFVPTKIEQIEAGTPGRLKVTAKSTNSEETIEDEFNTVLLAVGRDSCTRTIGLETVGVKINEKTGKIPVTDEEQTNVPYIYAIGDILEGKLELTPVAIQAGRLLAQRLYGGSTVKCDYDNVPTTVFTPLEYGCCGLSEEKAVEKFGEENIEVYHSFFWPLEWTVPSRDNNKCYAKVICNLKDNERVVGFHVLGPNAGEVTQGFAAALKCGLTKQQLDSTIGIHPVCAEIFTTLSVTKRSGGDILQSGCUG

| IC50 [µM] | Compound |
| --- | --- |
| 186 ± 14.9 | CC[C@H](C)[C@H](NC(=O)C1CSSC1)C(=O)O [2g, 2-(1,2-Dithiolane-4-carboxamido)-3-methylpentanoic acid] |
| 5.3 ± 0.4 | O=C(Nc1cc2ccccc2oc1=O)C1CSSC1 [2j, N-(2-Oxo-2H-chromen-3-yl)-1,2-dithiolane-4-carboxamide] |
| 36.3 ± 2.9 | O=C(Nc1ccc2oc(=O)ccc2c1)C1CSSC1 [2k, N-(2-oxo-2H-chromen-6-yl)-1,2-dithiolane-4-carboxamide] |

— article PMC10535816, “May 1,2-Dithiolane-4-carboxylic Acid and Its Derivatives Serve as a Specific Thioredoxin Reductase 1 Inhibitor?” (Molecules, 2023)
